From PMC10104807, “Modulation of tau tubulin kinases (TTBK1 and TTBK2) impacts ciliogenesis” (Scientific Reports, 2023)
Several values for one entry are separate records, joined by “and”; a condition that tells them apart may be missing. Equal entries are not always repeated. Where two headings read alike, the source gives them in different places.

How the values were obtained:
PAK5 = target: T1, PAK5 (Homo sapiens, UniProt Q9P286); experiment: Eurofins enzymatic radiometric kinase assay; type: biochemical; conditions: ATP at Km, duplicate
T1 construct: purchased Eurofins (radiometric) / Eurofins DiscoverX scanMAX / Reaction Biology / SignalChem
Method: (§1) The column labeled “# < 10 PoC in enzyme panel” in Table 1 reports the number of kinases in this 17-member panel inhibited > 90% by each analog.
(§2) Details about the substrate used, protein constructs, controls, and assay protocol for these kinase assays are available at the Eurofins website: https://www.eurofinsdiscoveryservices.com. Reaction Biology Corp. (RBC) radiometric HotSpot kinase assays were carried out at the Km value for ATP in dose–response (10-pt curve) format for MYLK4, RIPK5, and YSK4 in Table S2. Details about the substrate used, protein constructs, controls, and assay protocol for these kinase assays are available at the RBC website: https://www.reactionbiology.com/list-kinase-targets-us-facility. SignalChem developed an ADP-Glo assay to test for enzymatic inhibition of PIKfyve in dose–response (10-pt curve) format in duplicate.

TSSK1 = target: T2, TSSK1 (Homo sapiens, UniProt Q9BXA7); experiment: Eurofins enzymatic radiometric kinase assay; type: biochemical; conditions: ATP at Km, duplicate
T2 construct: purchased Eurofins (radiometric) / Eurofins DiscoverX scanMAX / Reaction Biology / SignalChem
T2 sequence (Q9BXA7 1-367): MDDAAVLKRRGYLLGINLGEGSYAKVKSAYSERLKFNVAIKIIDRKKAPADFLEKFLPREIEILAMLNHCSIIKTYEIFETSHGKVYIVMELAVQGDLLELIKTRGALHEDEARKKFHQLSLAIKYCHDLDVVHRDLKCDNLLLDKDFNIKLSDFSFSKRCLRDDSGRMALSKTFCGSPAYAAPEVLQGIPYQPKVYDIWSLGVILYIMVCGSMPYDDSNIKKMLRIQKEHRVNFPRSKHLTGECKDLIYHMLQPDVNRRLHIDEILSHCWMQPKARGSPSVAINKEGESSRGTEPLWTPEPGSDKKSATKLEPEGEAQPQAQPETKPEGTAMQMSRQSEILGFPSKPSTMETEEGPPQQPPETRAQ
Method: as §1, §2

HIPK1 = target: T3, HIPK1 (Homo sapiens, UniProt Q86Z02); experiment: Eurofins enzymatic radiometric kinase assay; type: biochemical; conditions: ATP at Km, duplicate
T3 construct: purchased Eurofins (radiometric) / Eurofins DiscoverX scanMAX / Reaction Biology / SignalChem
Method: as §1, §2

TSSK2 = target: T4, TSSK2 (Homo sapiens, UniProt Q96PF2); experiment: Eurofins enzymatic radiometric kinase assay; type: biochemical; conditions: ATP at Km, duplicate
T4 construct: purchased Eurofins (radiometric) / Eurofins DiscoverX scanMAX / Reaction Biology / SignalChem
T4 sequence (Q96PF2 1-358): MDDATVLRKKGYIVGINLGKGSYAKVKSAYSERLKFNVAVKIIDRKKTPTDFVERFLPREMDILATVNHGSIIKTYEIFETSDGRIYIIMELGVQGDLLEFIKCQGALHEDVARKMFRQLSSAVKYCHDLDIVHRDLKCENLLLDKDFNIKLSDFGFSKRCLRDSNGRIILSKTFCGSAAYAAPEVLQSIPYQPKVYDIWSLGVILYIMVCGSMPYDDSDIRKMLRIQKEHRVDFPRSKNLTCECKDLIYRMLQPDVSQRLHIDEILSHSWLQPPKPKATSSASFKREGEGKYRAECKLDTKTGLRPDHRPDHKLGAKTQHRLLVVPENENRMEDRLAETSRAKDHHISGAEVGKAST
Method: as §1, §2

[1] = target: 17-member enzymatic kinase assay panel; experiment: 17-member enzymatic kinase panel, number of kinases inhibited; type: biochemical; conditions: 1 μM; of 17 kinases
NLuc-TTBK2 = target: T5, NLuc-TTBK2 (Homo sapiens, UniProt Q6IQ55); experiment: TTBK2 NanoBRET cellular target engagement assay in HEK293 cells; type: cell-based
T5 construct: host or cells: HEK293
Method: HEK293 cells were transfected with constructs of TTBK1 or TTBK2 tagged with NLuc on the N- or C-terminus as previously described[43] Constructs for NanoBRET measurements of TTBK1 (NLuc-TTBK1 and TTBK1-NLuc) and TTBK2 (NLuc-TTBK2 and TTBK2-NLuc) were kindly provided by Promega. NLuc orientations used in the respective assays are indicated. Cells were plated in 96-well tissue culture treated plates (Corning 3917) at a cell density of 2 × 10^5 cells/mL, with a total volume of 100 μL per well in DMEM. […] NanoBRET plates were read after addition of 50 μL of a stock solution (3X) containing NanoBRET NanoGlo substrate (Promega N2161), extracellular NanoLuc inhibitor (Promega N2161) and Opti-MEM. For a 96-well plate the 3X stock solution was prepared with 30 μL of NanoBRET NanoGlo substrate, 10 μL of extracellular NanoLuc inhibitor, and 4960 μL of Opti-MEM without phenol red. […] HEK293 cells were transfected with NLuc-TTBK1 or NLuc-TTBK2. […] One biological replicate was plotted in GraphPad Prism with log[inhibitor] vs. response (three parameters) and included in Fig. 3C. NanoBRET assays were carried out in dose-response format as described previously. NLuc orientations used in the respective assays are as follows: NLuc-TTBK1, NLuc-TTBK2, and PIP4K2C-NLuc (for PI5[…]γ). […] Data are reported as IC50 ± standard error mean (SEM). For PI5[…]γ, 9 was tested in 12-point dose-response format with a top concentration of 10 μM (data in Table S2). One biological replicate was plotted in GraphPad Prism with log[inhibitor] vs. response (three parameters).

TTBK1 = target: T6, TTBK1 (Homo sapiens, UniProt Q5TCY1); experiment: Eurofins enzymatic radiometric kinase assay; type: biochemical; conditions: for TTBK1 PoC: 1 μM, duplicate, lower = greater inhibition
T6 construct: purchased Eurofins
Method: as §1, §2

[2] = intact HEK293 cells, 2 μM tracer 29, read-out: TTBK2 intact cell NB IC50
[3] = permeabilized HEK293 cells (digitonin), 2 μM tracer 29, read-out: TTBK2 permeabilized cell NB IC50

T3 sequence (Q86Z02 whole entry): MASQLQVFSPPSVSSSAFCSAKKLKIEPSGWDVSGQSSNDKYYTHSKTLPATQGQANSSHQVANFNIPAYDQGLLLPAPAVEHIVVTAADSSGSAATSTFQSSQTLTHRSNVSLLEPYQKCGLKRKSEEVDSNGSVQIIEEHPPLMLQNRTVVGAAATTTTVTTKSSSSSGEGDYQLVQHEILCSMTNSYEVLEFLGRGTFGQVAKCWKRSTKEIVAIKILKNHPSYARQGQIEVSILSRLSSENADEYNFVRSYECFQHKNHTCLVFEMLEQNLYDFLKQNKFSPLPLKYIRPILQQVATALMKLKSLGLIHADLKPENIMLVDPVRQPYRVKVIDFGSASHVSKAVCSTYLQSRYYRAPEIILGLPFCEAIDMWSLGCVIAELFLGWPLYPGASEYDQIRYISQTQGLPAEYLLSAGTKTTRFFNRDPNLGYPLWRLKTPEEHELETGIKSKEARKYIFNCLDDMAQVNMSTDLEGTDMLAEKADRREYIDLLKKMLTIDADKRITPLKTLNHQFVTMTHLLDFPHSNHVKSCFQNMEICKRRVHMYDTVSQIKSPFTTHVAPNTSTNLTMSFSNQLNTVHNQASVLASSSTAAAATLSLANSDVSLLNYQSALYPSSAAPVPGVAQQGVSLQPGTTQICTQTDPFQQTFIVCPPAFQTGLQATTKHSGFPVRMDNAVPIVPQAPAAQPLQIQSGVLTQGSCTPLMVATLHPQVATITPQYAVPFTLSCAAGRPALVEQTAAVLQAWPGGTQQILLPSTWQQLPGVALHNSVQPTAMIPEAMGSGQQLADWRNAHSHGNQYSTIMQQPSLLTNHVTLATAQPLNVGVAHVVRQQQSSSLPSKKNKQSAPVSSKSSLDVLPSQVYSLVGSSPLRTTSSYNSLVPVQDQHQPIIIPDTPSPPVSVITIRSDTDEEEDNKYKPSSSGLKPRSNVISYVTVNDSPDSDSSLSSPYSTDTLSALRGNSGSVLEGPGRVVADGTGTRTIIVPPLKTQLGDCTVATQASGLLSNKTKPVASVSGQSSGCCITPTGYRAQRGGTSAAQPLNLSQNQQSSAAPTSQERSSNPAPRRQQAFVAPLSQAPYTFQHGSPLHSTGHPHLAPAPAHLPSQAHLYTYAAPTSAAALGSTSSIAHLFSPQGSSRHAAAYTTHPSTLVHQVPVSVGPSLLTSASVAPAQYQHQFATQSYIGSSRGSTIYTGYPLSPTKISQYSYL
T1 sequence (Q9P286 whole entry): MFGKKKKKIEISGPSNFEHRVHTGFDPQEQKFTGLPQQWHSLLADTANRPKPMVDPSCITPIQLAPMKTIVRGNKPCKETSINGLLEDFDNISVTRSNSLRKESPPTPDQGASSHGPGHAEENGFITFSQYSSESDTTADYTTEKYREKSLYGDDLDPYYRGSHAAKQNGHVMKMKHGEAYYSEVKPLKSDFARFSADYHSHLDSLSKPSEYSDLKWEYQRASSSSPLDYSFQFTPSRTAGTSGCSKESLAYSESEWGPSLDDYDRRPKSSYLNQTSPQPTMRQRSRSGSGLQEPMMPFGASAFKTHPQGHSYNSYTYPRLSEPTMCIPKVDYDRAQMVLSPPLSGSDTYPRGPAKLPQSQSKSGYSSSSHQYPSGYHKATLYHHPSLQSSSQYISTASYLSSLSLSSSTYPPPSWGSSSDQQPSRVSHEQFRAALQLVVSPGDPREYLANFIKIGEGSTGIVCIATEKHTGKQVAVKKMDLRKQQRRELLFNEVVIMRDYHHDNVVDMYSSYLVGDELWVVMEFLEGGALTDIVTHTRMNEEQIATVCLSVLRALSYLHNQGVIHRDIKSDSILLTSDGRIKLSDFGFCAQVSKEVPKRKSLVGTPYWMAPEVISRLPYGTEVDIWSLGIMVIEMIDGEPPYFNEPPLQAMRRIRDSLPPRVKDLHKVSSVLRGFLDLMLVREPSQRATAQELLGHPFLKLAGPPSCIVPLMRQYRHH
T5 sequence (Q6IQ55 whole entry): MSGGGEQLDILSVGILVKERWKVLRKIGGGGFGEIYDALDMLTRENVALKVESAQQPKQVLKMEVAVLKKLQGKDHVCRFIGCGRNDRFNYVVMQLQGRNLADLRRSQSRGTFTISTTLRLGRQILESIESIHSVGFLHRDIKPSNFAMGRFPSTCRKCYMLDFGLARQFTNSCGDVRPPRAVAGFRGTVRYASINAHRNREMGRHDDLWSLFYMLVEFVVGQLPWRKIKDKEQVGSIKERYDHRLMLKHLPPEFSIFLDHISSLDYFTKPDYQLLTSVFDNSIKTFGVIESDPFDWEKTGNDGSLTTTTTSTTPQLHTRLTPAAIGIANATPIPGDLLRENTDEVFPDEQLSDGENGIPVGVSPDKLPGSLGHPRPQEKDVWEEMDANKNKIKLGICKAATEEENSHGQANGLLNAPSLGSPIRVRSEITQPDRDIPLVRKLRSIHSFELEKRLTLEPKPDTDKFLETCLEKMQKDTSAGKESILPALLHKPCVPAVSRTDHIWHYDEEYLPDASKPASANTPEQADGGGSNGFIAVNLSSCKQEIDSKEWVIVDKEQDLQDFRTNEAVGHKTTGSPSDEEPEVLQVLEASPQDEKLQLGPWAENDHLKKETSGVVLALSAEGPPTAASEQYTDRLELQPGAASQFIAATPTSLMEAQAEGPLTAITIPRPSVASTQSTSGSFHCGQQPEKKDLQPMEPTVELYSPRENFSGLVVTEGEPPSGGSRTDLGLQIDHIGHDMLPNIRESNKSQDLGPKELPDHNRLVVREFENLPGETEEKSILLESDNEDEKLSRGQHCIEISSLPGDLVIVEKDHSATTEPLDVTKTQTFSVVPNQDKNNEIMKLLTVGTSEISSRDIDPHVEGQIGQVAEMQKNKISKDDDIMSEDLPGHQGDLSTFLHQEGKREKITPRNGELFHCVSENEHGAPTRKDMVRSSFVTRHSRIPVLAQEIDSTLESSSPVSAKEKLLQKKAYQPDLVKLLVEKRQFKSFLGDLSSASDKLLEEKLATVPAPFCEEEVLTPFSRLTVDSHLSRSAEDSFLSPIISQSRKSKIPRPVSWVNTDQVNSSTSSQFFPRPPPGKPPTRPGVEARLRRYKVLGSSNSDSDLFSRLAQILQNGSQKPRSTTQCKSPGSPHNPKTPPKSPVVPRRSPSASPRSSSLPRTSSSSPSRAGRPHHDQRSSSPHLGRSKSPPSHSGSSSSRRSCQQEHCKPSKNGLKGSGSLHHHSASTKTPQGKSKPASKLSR
T6 sequence (Q5TCY1 whole entry): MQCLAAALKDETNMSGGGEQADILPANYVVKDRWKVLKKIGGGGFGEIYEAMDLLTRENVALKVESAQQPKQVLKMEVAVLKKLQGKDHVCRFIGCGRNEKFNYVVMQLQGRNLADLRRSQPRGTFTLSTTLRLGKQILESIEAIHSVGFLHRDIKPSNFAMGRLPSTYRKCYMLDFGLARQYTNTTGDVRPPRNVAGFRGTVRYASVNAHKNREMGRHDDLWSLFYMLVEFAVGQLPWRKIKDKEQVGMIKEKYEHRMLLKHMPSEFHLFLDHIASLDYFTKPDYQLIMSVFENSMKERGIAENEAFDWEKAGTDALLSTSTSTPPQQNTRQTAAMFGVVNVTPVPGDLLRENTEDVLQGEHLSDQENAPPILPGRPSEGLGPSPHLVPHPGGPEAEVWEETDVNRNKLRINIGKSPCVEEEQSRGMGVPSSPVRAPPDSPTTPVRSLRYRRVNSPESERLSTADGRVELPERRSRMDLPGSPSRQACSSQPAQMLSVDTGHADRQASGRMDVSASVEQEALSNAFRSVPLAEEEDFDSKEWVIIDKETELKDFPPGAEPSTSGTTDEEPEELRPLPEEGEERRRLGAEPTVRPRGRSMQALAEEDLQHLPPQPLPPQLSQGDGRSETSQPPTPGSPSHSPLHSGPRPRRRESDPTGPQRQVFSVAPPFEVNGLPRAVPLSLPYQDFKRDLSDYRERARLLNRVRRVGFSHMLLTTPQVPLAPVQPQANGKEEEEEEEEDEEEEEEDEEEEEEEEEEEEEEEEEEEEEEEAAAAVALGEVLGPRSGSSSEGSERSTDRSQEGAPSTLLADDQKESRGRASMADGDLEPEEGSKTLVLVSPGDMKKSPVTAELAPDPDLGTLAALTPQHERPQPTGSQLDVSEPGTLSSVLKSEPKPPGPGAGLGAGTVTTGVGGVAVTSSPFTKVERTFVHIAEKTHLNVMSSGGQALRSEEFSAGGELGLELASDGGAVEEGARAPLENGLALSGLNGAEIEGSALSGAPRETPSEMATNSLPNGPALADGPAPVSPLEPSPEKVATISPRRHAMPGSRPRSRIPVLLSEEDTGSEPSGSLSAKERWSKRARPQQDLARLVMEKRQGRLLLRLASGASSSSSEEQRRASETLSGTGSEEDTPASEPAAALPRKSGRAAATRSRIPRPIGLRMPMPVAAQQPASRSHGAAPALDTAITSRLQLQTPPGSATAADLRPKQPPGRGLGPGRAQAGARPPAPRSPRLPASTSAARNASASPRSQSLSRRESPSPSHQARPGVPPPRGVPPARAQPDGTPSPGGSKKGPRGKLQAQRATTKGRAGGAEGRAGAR

Row | Compound | PAK5 PoC at 1 μM (PAK5) [PoC] | TSSK1 PoC at 1 μM (TSSK1) [PoC] | HIPK1 PoC at 1 μM (HIPK1) [PoC] | TSSK2 PoC at 1 μM (TSSK2) [PoC] | # kinases < 10 PoC in enzyme panel [1] | IC50 (NLuc-TTBK2; [2]) [µM] | IC50 (NLuc-TTBK2; [3]) [µM] | IC50 (TTBK1) [µM] | TTBK1 PoC (TTBK1; ATP at Km) | IC50 (TTBK1; ATP at Km, dose–response 9-pt curve) [µM] | IC50 (NLuc-TTBK2; tracer titration experiment, 2 μM tracer 29, n = 1, read-out: NL-TTBK2 IC50, tracer titration) [µM]
1 | CC(C)(O)C#Cc1ccc2[nH]c3c(c2c1)-c1nc(N)ncc1CCC3 [AMG28, reference compound] | 3 | 10 | 67 | 57 | – | – | – | – | – | – | –
2 | CC(C)(O)C#Cc1ccc2[nH]c3c(c2c1)-c1nc(N)ncc1CC3 [Compound 1] | 48 | 48 | 76 | 88 | 2 | 16 | 3.6 | > 1 | 78 PoC | 3.14 | –
3 | CC(C)(O)C#Cc1ccc2[nH]c3c(c2c1)-c1nc(N)ncc1CCCC3 [Compound 2] | 87 | 82 | 96 | 76 | 1 | > 30 | 17 | – | 92 PoC and 92/NT^[c] PoC | – | –
4 | CC(C)(O)C#Cc1ccc2[nH]cc(-c3ccnc(N)n3)c2c1 [Compound 3] | 31 | 30 | 87 | 78 | 3 | 11.7 ± 3.7 | 2.52 ± 0.62 | – | 43 PoC | – | 6.9
5 | COC(C)(C)C#Cc1ccc2[nH]c3c(c2c1)-c1nc(N)ncc1CCC3 [Compound 11] | 88 | 89 | 96 | 86 | 1 | > 30 | > 30 | – | 117 PoC and 117/NT PoC | – | –
